{"source": "patent US20050182011A1", "about": "“Inhibition of TRP channels as a treatment for cardiac hypertrophy and heart failure” (priority 2003, published 2005)", "key": {"[1]": {"tested_on": "voltage-gated calcium channels", "details": "Maruyama et al., 1997; cited from earlier work"}, "[2]": {"tested_on": "arachidonic acid-activated calcium channels", "details": "Luo et al., 2001; cited from earlier work"}, "ryanodine receptors": {"tested_on": "ryanodine receptors", "details": "Maruyama et al., 1997; cited from earlier work"}, "[3]": {"tested_on": "S-nitrosylation-activated calcium channels", "details": "Van Rossum et al., 2000; cited from earlier work"}, "[4]": {"tested_on": "purinergic P2X receptor calcium channels", "details": "cited from earlier work"}, "[5]": {"tested_on": "neonatal rat ventricular myocytes (NRVM)", "procedure": "NRVM culture. […] Myocyte preparations were pre-plated in Dulbecco's modified Eagle's medium (DMEM, Cellgro), supplemented with 10% (v/v) fetal bovine serum (FBS, HyClone), 4 mM L-glutamine and 1% penicillin/streptomycin for 1 hr at 37° C. to reduce fibroblast contamination, then plated at a density of 2.5×10^5 cells per well on 6-well tissue culture plates (or 10,000 cells/well on 96-well tissue culture plates) coated with a 0.2% (w/v) gelatin solution.\nFor infection with calcineurin adenovirus, NRVM were exposed to adenovirus at a multiplicity of infection (MOI) of 25 for 48 h prior to analysis.\nHypertrophy and Toxicity Assays. Primary hypertrophy endpoints for NRVM included quantitation of ANF secretion, total cellular protein and cell volume. ANF in media supernatants was quantitated by competitive ELISA using a monoclonal anti-ANF antibody (Biodesign) and a biotinylated ANF peptide (Phoenix Peptide). Total cellular protein was quantitated by standard Coomassie dye-binding assay; cells were lysed in protein assay reagent (BioRad) and absorbance at A595 was measured after 1 hr. […] After recovery by centrifugation, cell pellets were washed in PBS, resuspended in 10 ml IsoFlow electrolyte solution (Beckman-Coulter) and analyzed with a Z2 Coulter Particle Counter and Size Analyzer (Beckman-Coulter). […]"}, "[6]": {"tested_on": "calcium-activated chloride channels", "details": "Chorna-Ornan et al., 2001; cited from earlier work"}, "[7]": {"tested_on": "MCIP1 protein (indicator of calcineurin activity) in NRVM", "experiment": "Western blot of MCIP1 protein in NRVM", "type": "cell-based, rat", "details": "for expression of 38 kDa calcineurin-independent MCIP1 isoform: NRVM", "procedure": "(§1) Western Blots. For protein sample preparation, cultured cells were lysed in extraction buffer (50 mM Tris, pH 7.5, 150 mM NaCl, 1% Triton X-100, 0.5% deoxycholic acid, 0.1% SDS) supplemented with protease inhibitors (1 mM AEBSF, 10 mg/ml aprotinin, 0.1 mM leupeptin, 2 mM EDTA). Left ventricle samples were ground under liquid nitrogen and solubilized in extraction buffer containing protease inhibitors. Homogenates were centrifuged 10 min at 4° C. at 16,000 g and supernatants recovered. Protein concentrations were determined by the bicinchoninic acid method (BCA Protein Assay, Pierce) with bovine serum albumin as a standard. Equivalent quantities of protein samples ([…]) were denatured in Laemmli buffer and resolved on Tris-glycine SDS-PAGE gels (4-20% acrylamide gradient, Invitrogen). Resolved proteins were transferred to nitrocellulose membranes, blocked in 5% nonfat dry milk, and probed with rabbit polyclonal primary antibody (diluted in TBST; 50 mM Tris, pH 7.5, 150 mM NaCl, 0.1% Tween-20) supplemented with 5% nonfat dry milk. Primary antibodies used include: anti-TRPC1 and TRPC3 (Alomone Labs) and anti-MCIP1 (Myogen, Inc). Membranes were washed, probed with a goat anti-rabbit horseradish peroxidase-conjugated secondary antibody (Southern Biotechnology Associates), and processed for enhanced chemiluminescence (SuperSignal reagent, Pierce). To verify equivalent protein loading, membranes were subsequently reprobed with a polyclonal rabbit antibody to the housekeeping gene IP90-calnexin. Densitometric analysis of immunoreactive band images was performed using a ChemiImager (Alpha Innotech)."}, "[8]": {"experiment": "Isoproterenol infusion model, heart weight to body weight ratio", "type": "in vivo", "details": "rat, isoproterenol 4.8 mg/kg/d by osmotic minipump, 4 days", "procedure": "Isoproterenol Infusion. For pharmacologic induction of hypertrophy in vivo, nine to ten-week-old male Sprague-Dawley rats were anesthetized via passive inhalation of 2.0% isoflurane. When a level of surgical anesthesia was reached, an osmotic minipump (Alzet model 2001, Alza Corp., Palo Alto, Calif.) containing either vehicle (0.1% ascorbic acid in 0.9% NaCl), or isoproterenol (4.8 mg/kg/d) was subcutaneously implanted into the back between the scapulae followed by closure with 3-0 silk sutures. After 4 days of recovery, animals were sacrificed and left ventricular tissue processed for Western blot analysis as described above. Average heart weight to body weight ratios in isoproterenol versus vehicle-infused rats increased 48% (data not shown)."}, "[9]": {"tested_on": "TRPC channel protein in left ventricle", "experiment": "Isoproterenol infusion model, Western blot of TRPC isoforms in left ventricle", "type": "in vivo, rat", "procedure": "as §1, with “Innotech). Isoproterenol Infusion. For pharmacologic induction of hypertrophy in vivo, nine to ten-week-old male Sprague-Dawley rats were anesthetized via passive inhalation of 2.0% isoflurane. When a level of surgical anesthesia was reached, an osmotic minipump (Alzet model 2001, Alza Corp., Palo Alto, Calif.) containing either vehicle (0.1% ascorbic acid in 0.9% NaCl), or isoproterenol (4.8 mg/kg/d) was subcutaneously implanted into the back between the scapulae followed by closure with 3-0 silk sutures. After 4 days of recovery, animals were sacrificed and left ventricular tissue processed for Western blot analysis as described above. Average heart weight to body weight ratios in isoproterenol versus vehicle-infused rats increased 48% (data not shown).” for “Innotech).”"}, "TRPC3 protein in NRVM": {"tested_on": "TRPC3 protein in NRVM", "experiment": "Western blot of TRPC3 protein in cultured NRVM exposed to hypertrophic stimuli", "type": "cell-based, rat", "details": "48 h, phenylephrine, FBS 10%, calcineurin adenovirus MOI 25", "procedure": "as §1, with “To verify equivalent protein loading, membranes were subsequently reprobed with a polyclonal rabbit antibody to the housekeeping gene IP90-calnexin. Densitometric analysis of immunoreactive band images was performed using a ChemiImager (Alpha Innotech).” left out"}}, "note": "Entries after “also recorded” stand apart in the source; their conditions may differ.", "data": [{"compound": "NCCOB(c1ccccc1)c1ccccc1", "note": "[Compound 2-APB, 2-amino-ethoxydiphenyl borane]", "values": [{"measurement": "inhibition of voltage-gated calcium channels", "setting": "[1]", "result": "not inhibited"}, {"measurement": "inhibition of arachidonic acid-activated calcium channels", "setting": "[2]", "result": "not inhibited"}, {"measurement": "inhibition of ryanodine receptors", "setting": "ryanodine receptors", "result": "not inhibited"}, {"measurement": "inhibition of S-nitrosylation-activated calcium channels", "setting": "[3]", "result": "not inhibited"}, {"measurement": "inhibition of purinergic P2X receptor calcium channels", "setting": "[4]", "result": "not inhibited"}, {"measurement": "cytotoxicity as measured by adenylate kinase release", "setting": "[5]; 48 hours, 0.3 to 30 μM", "result": "no significant cytotoxicity; also recorded: no significant toxicity was observed at any concentration"}, {"measurement": "inhibition of calcium-activated chloride channels", "setting": "[6]", "result": "not inhibited"}, {"measurement": "expression of 38 kDa calcineurin-independent MCIP1 isoform", "setting": "[7]", "result": "unaffected"}, {"measurement": "PE-dependent induction of 28 kDa MCIP1 protein", "setting": "[7]; PE-stimulated NRVM, increasing concentrations", "result": "attenuates; also recorded: attenuated induction"}]}, {"compound": "CC(C)NCC(O)c1ccc(O)c(O)c1", "note": "(stereo not drawn) [isoproterenol]", "values": [{"measurement": "increase of average heart weight to body weight ratio versus vehicle-infused rats", "setting": "[8]", "result": 48, "unit": "%"}, {"measurement": "TRPC3 protein expression", "setting": "[9]; Rat iso model", "result": "↑"}, {"measurement": "TRPC5 protein expression", "setting": "[9]; Rat iso model", "result": "increased expression"}, {"measurement": "TRPC5 protein expression", "setting": "[9]; Rat iso model, listed as iso", "result": "↑"}, {"measurement": "induction of ventricular TRPC3 protein expression", "setting": "[9]; rat, chronic isoproterenol infusion, densitometry", "result": "approximately three-fold"}]}, {"compound": "CNC[C@H](O)c1cccc(O)c1", "note": "[phenylephrine]", "values": [{"measurement": "expression of TRPC3 channel protein in cardiomyocytes", "setting": "TRPC3 protein in NRVM", "result": "significantly increased"}, {"measurement": "expression of 38 kDa calcineurin-independent MCIP1 isoform", "setting": "[7]", "result": "unaffected"}, {"measurement": "expression of 28 kDa MCIP1 protein", "setting": "[7]; NRVM stimulated with phenylephrine", "result": "strongly induced"}]}, {"compound": "Triton X-100", "values": [{"measurement": "fold change in AK release versus unstimulated control", "setting": "[5]; 0.1% Triton X-100, positive control for cytotoxicity", "result": "approximately 6 fold"}]}]}
